Measured values reported in patent US20060069132A1, “Azolecarboxamide herbicides” (priority 2004, published 2006).
Like-named read-outs stand apart in the source and are kept apart here.

Key:
[1] = test system: barnyardgrass; experiment: Test A pre-/postemergence herbicide test; assay type: in vivo, Echinochloa crus-galli; details: Echinochloa crus-galli, 240 h; for pest or weed control at 500 g/ha: 500 g ai/ha; for pest or weed control at 2000 g/ha: 2000 g ai/ha
Procedure, shortened: (§1)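 Both application timings were run together: directed soil spray over freshly planted seeds in sandy loam, and runoff spray onto 2–10 cm seedlings. Evaluation after ~10 days in greenhouse used a 0–100 visual scale versus untreated controls.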

[2] = test system: redroot pigweed; experiment: Test A pre-/postemergence herbicide test; assay type: in vivo, Amaranthus retroflexus; details: Amaranthus retroflexus, 240 h; for pest or weed control at 500 g/ha: 500 g ai/ha; for pest or weed control at 2000 g/ha: 2000 g ai/ha
Procedure, shortened: as §1

[3] = test system: velvetleaf; experiment: Test A pre-/postemergence herbicide test; assay type: in vivo, Abutilon theophrasti; details: Abutilon theophrasti, 240 h; for pest or weed control at 500 g/ha: 500 g ai/ha; for pest or weed control at 2000 g/ha: 2000 g ai/ha
Procedure, shortened: as §1

[4] = test system: giant foxtail; experiment: Test A pre-/postemergence herbicide test; assay type: in vivo, Setaria faberi; details: Setaria faberi, 240 h; for pest or weed control at 500 g/ha: 500 g ai/ha; for pest or weed control at 2000 g/ha: 2000 g ai/ha
Procedure, shortened: as §1

[5] = test system: ducksalad; experiment: Test C flooded paddy test; assay type: in vivo, Heteranthera limosa; details: for pest or weed control at 62 g/ha / pest or weed control at 125 g/ha / pest or weed control at 250 g/ha / pest or weed control at 500 g/ha: Heteranthera limosa; for pest or weed control at 500 g/ha / Plant response rating, Ducksalad: 500 g ai/ha, visual rating after 12 to 14 days; for pest or weed control at 500 g/ha: read-out: Plant response rating, Ducksalad
[6] = test system: barnyardgrass; experiment: Test C flooded paddy test; assay type: in vivo, Echinochloa crus-galli; details: for pest or weed control at 62 g/ha / pest or weed control at 125 g/ha / pest or weed control at 250 g/ha / pest or weed control at 500 g/ha: Echinochloa crus-galli; for pest or weed control at 62 g/ha / pest or weed control at 125 g/ha / pest or weed control at 250 g/ha: read-out: Barnyardgrass plant response rating; for pest or weed control at 500 g/ha / Plant response rating, Barnyardgrass: 500 g ai/ha, visual rating after 12 to 14 days; for pest or weed control at 500 g/ha: read-out: Plant response rating, Barnyardgrass
Procedure, shortened: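 Visual rating, 0 (no effect) to 100 (complete control), vs. controls at 12–14 d in greenhouse. Postemergence: 1–4-leaf plants, 2–18 cm. Paddy: flooded, barnyardgrass at 2-leaf stage.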

[7] = post-emergence, Postemergence, 0 to 100 scale, 0 no effect, 100 complete control, read-out: Barnyardgrass plant response rating
[8] = post-emergence, Postemergence, 0 to 100 scale, 0 no effect, 100 complete control, read-out: Plant response rating, Barnyardgrass
[9] = pre-emergence, Preemergence, visual rating, 0 to 100 scale (0 no effect, 100 complete control), read-out: Barnyardgrass plant response rating
[10] = post-emergence, Postemergence, 0 to 100 scale, 0 no effect, 100 complete control, read-out: Pigweed plant response rating
[11] = post-emergence, Postemergence, 0 to 100 scale, 0 no effect, 100 complete control, read-out: Plant response rating, Pigweed
[12] = pre-emergence, Preemergence, visual rating, 0 to 100 scale (0 no effect, 100 complete control), read-out: Pigweed plant response rating
[13] = pre-emergence, preemergence, visual injury, 0 to 100 scale (0 no effect, 100 complete control), read-out: Pigweed plant response rating
[14] = post-emergence, Postemergence, 0 to 100 scale, 0 no effect, 100 complete control, read-out: Velvetleaf plant response rating
[15] = post-emergence, Postemergence, 0 to 100 scale, 0 no effect, 100 complete control, read-out: Plant response rating, Velvetleaf
[16] = pre-emergence, Preemergence, visual rating, 0 to 100 scale (0 no effect, 100 complete control), read-out: Velvetleaf plant response rating
[17] = pre-emergence, preemergence, visual injury, 0 to 100 scale (0 no effect, 100 complete control), read-out: Velvetleaf plant response rating
[18] = post-emergence, Postemergence, 0 to 100 scale, 0 no effect, 100 complete control, read-out: Foxtail, Giant plant response rating
[19] = post-emergence, Postemergence, 0 to 100 scale, 0 no effect, 100 complete control, read-out: Plant response rating, Foxtail, Giant
[20] = pre-emergence, Preemergence, visual rating, 0 to 100 scale (0 no effect, 100 complete control), read-out: Foxtail, Giant plant response rating
[21] = 62 g ai/ha, scale 0 to 100 (0 no effect, 100 complete control), read-out: Ducksalad plant response rating
[22] = 125 g ai/ha, scale 0 to 100 (0 no effect, 100 complete control), read-out: Ducksalad plant response rating
[23] = 250 g ai/ha, scale of 0 to 100, 0 is no effect, 100 is complete control, read-out: Ducksalad plant response rating
[24] = scale 0 to 100 (0 no effect, 100 complete control)
[25] = 62 g ai/ha, scale 0 to 100 (0 no effect, 100 complete control)
[26] = 125 g ai/ha, scale 0 to 100 (0 no effect, 100 complete control)
[27] = 250 g ai/ha, scale of 0 to 100, 0 is no effect, 100 is complete control

Row | SMILES | pest or weed control at 500 g/ha [1, 7] | pest or weed control at 2000 g/ha [1, 8] | pest or weed control at 2000 g/ha [1, 9] | pest or weed control at 500 g/ha [2, 10] | pest or weed control at 2000 g/ha [2, 11] | pest or weed control at 2000 g/ha [2, 12] | pest or weed control at 500 g/ha [2, 13] | pest or weed control at 500 g/ha [3, 14] | pest or weed control at 2000 g/ha [3, 15] | pest or weed control at 2000 g/ha [3, 16] | pest or weed control at 500 g/ha [3, 17] | pest or weed control at 500 g/ha [4, 18] | Ducksalad plant response rating ([5]; 62 g ai/ha, scale 0 to 100) | Ducksalad plant response rating [5, 26] | Ducksalad plant response rating [5, 27] | Plant response rating, Ducksalad [5, 24] | Barnyardgrass plant response rating [6, 25] | Barnyardgrass plant response rating [6, 26] | Barnyardgrass plant response rating [6, 27] | Plant response rating, Barnyardgrass [6, 24] | also measured
1 | CCn1nc(C(C)(C)C)cc1C(=O)Nc1cccc(C(=O)OC)n1 [Compound 143, methyl 6-[[[3-(1,1-dimethylethyl)-1-ethyl-1H-pyrazol-5-yl]carbonyl]amino]-2-pyridinecarboxylate] | 10% | 25% | 0% | 20% | 35% | 0% | 0% | 0% | 15% | 0% | 0% | 10% |  |  |  |  |  |  |  |  | pest or weed control at 500 g/ha [1, 9]: 0%; pest or weed control at 2000 g/ha [4, 19]: 15%; pest or weed control at 500 g/ha [4, 20]: 0%; pest or weed control at 2000 g/ha [4, 20]: 0%
2 | CCn1nc(C(C)(C)C)cc1C(=O)Nc1cc(C(=O)OC)ccn1 [Compound 151, methyl 2-[[[3-(1,1-dimethylethyl)-1-ethyl-1H-pyrazol-5-yl]carbonyl]amino]-4-pyridinecarboxylate] | 10% | 10% | 0% | 35% | 70% | 0% | 0% | 35% | 60% | 10% | 0% | 10% |  |  |  |  |  |  |  |  | pest or weed control at 500 g/ha [1, 9]: 0%; pest or weed control at 2000 g/ha [4, 19]: 10%; pest or weed control at 500 g/ha [4, 20]: 0%; pest or weed control at 2000 g/ha [4, 20]: 0%
3 | CCn1nc(C(C)(C)C)cc1C(=O)Nc1ccc(F)c(C(=O)N(C)C)c1 [Compound 236, N-[3-[(dimethylamino)carbonyl]-4-fluorophenyl]-3-(1,1-dimethylethyl)-1-ethyl-1H-pyrazole-5-carboxamide] |  |  |  |  |  |  |  |  |  |  |  |  |  |  |  |  |  |  |  |  | pest or weed control at 62 g/ha [5, 21]: 0%; pest or weed control at 125 g/ha [5, 22]: 40%; pest or weed control at 250 g/ha [5, 23]: 55%; pest or weed control at 500 g/ha [5, 24]: 80%; pest or weed control at 62 g/ha [6, 25]: 0%; pest or weed control at 125 g/ha [6, 26]: 0%; pest or weed control at 250 g/ha [6, 27]: 15%; pest or weed control at 500 g/ha [6, 24]: 40%
4 | CCNC(=O)c1cc(NC(=O)c2cn(C(C)(C)C)nc2CC)ccc1F [Compound 241, 1-(1,1-dimethylethyl)-3-ethyl-N-[3-[(ethylamino)carbonyl]-4-fluorophenyl]-1H-pyrazole-4-carboxamide] |  |  |  |  |  |  |  |  |  |  |  |  |  |  |  |  |  |  |  |  | pest or weed control at 62 g/ha [5, 21]: 0%; pest or weed control at 125 g/ha [5, 22]: 0%; pest or weed control at 250 g/ha [5, 23]: 0%; pest or weed control at 500 g/ha [5, 24]: 15%; pest or weed control at 62 g/ha [6, 25]: 0%; pest or weed control at 125 g/ha [6, 26]: 0%; pest or weed control at 250 g/ha [6, 27]: 0%; pest or weed control at 500 g/ha [6, 24]: 30%
5 | CCOC(=O)c1ccc(F)c(NC(=O)C2CC(C(C)(C)C)=NN2CC)c1 (centres unmarked) [Compound 267, ethyl 3-[[[3-(1,1-dimethylethyl)-1-ethyl-4,5-dihydro-1H-pyrazol-5-yl]carbonyl]amino]-4-fluorobenzoate] | 40% | 65% | 80% | 40% | 60% | 80% | 5% | 30% | 35% | 60% | 25% | 30% |  |  |  |  |  |  |  |  | pest or weed control at 500 g/ha ([1]; pre-emergence, preemergence, visual injury, 0 to 100 scale (0 no effect, 100 complete control), read-out: Barnyardgrass plant response rating): 70%; pest or weed control at 2000 g/ha [4, 19]: 55%; pest or weed control at 2000 g/ha [4, 20]: 85%; pest or weed control at 500 g/ha ([4]; pre-emergence, preemergence, visual injury, 0 to 100 scale (0 no effect, 100 complete control), read-out: Foxtail, Giant plant response rating): 75%
6 | CCOC(=O)c1ccc(F)c(NC(=O)c2cc(C3(C)CC3)nn2CC)c1 [Compound 296] |  |  |  |  |  |  |  |  |  |  |  |  | 0 | 0 | 40 | 70 | 15 | 25 | 50 | 65 | 
7 | CCc1nn(C(C)C)nc1C(=O)Nc1cccc(C(=O)N(C)C)c1 [Compound 358, N-[3-[(dimethylamino)carbonyl)phenyl]-5-ethyl-2-(1-methylethyl)-2H-1,2,3-triazole-4-carboxamide] |  |  |  |  |  |  |  |  |  |  |  |  |  |  |  |  |  |  |  |  | pest or weed control at 62 g/ha ([5]; 62 g ai/ha, scale 0 to 100, read-out: Ducksalad plant response rating): 0%; pest or weed control at 125 g/ha [5, 22]: 80%; pest or weed control at 250 g/ha [5, 23]: 90%; pest or weed control at 500 g/ha [5, 24]: 95%; pest or weed control at 62 g/ha [6, 25]: 0%; pest or weed control at 125 g/ha [6, 26]: 60%; pest or weed control at 250 g/ha [6, 27]: 75%; pest or weed control at 500 g/ha [6, 24]: 85%
8 | C#CCNC(=O)c1cccc(NC(=O)c2nn(C(C)(C)C)nc2CC)c1 [Compound 380] |  |  |  |  |  |  |  |  |  |  |  |  | 25 | 50 | 75 | 85 | 35 | 45 | 65 | 70 | 
9 | C#CCOc1cccc(NC(=O)c2cc(C(C)(C)C)nn2CC)c1 [Compound 411] |  |  |  |  |  |  |  |  |  |  |  |  | 25 | 50 | 70 | 80 | 15 | 25 | 40 | 45 | 
10 | C=CCOc1cccc(NC(=O)c2cc(C(C)(C)C)nn2CC)c1 [Compound 412] |  |  |  |  |  |  |  |  |  |  |  |  | 0 | 30 | 60 | 90 | 0 | 20 | 35 | 45 | 
